Values after ≈ are worked out from the molar mass of the structure shown.
Experiments:
HCT-116 [1] = test: cells; conditions: Homo sapiens, HCT-116, 72 h
Description: Antiproliferative activity against human HCT-116 cells incubated for 72 hrs by MTT assay

[2] = Metabolic stability in human liver microsomes assessed as half life by LC-MS/MS analysis; format: ADME, Microsome
[3] = molecular target: T1, Glutaminase kidney isoform, mitochondrial (Homo sapiens, UniProt O94925); test: Inhibition of GLS1 (unknown origin) preincubated for 10 mins followed by glutamine addition measured after 60 mins
T1 sequence (O94925 whole entry): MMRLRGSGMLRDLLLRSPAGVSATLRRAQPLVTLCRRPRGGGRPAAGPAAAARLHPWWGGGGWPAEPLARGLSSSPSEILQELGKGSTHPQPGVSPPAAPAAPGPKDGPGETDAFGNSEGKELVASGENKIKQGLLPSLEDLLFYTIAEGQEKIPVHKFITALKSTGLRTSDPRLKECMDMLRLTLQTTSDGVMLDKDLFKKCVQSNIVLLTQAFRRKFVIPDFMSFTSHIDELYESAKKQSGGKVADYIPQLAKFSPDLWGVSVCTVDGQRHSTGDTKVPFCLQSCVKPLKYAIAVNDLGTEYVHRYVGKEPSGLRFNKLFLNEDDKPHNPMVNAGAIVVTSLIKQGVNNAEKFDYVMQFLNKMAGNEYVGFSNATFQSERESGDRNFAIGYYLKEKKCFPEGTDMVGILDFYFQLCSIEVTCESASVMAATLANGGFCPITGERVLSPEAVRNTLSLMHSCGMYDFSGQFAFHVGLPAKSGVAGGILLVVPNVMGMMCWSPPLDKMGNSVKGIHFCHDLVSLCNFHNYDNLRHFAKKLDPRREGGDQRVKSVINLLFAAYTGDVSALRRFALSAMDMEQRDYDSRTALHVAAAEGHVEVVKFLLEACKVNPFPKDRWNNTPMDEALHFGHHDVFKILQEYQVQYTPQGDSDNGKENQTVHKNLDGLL

[4] = Metabolic stability in human liver microsomes assessed as clearance measured upto 120 mins by LC-MS/MS analysis; format: ADME, Microsome; conditions: read-out: CLH
[5] = Intrinsic aqueous solubility of the compound in PBS buffer at pH 7.4 measured after 72 hrs by LC-MS analysis; format: physicochemical; conditions: read-out: Intrinsic_solubility
HCT-116 [6] = test: Antitumor activity against human HCT-116 cells xenografted in BALB/c nude mouse assessed as tumor growth inhibition at 100 mg/kg, ip for 20 days relative to control; format: functional; conditions: Mus musculus, HCT-116, 480 h, time 20 day, read-out: TGI
[7] = molecular target: T2, Glutaminase kidney isoform, mitochondrial (Homo sapiens) (UniProt O94925)
T2 sequence (whole entry): T1 sequence (O94925 whole entry)
Description: Stabilization of GLS1 (unknown origin) assessed as change in melting temperature by protein thermal assay

Row | SMILES | IC50 (HCT-116 [1]) | IC50 [3] | also measured
1 | CCCCOc1cccc(CC(=O)Nc2ccc(CCCCc3nnc(NC(=O)CCCC)s3)nn2)c1 | 380 nM | 27 nM | half-life [2]: 54.6 min; microsomal CLint [4]: 63.5 µL/min/mg
2 | C=CCCOc1cccc(CC(=O)Nc2ccc(N3CCC(Nc4nnc(NC(=O)CCC=C)s4)CC3)nn2)c1 | 430 nM | 19 nM | half-life [2]: 68.6 min; microsomal CLint [4]: 50.2 µL/min/mg
3 | CCCCC(=O)Nc1nnc(CCCCc2ccc(NC(=O)Cc3cccc(OC)c3)nn2)s1 | 2460 nM | 190 nM | –
4 | C=CCCCOc1cccc(CC(=O)Nc2nnc(CCCCc3ccc(NC(=O)CCC=C)nn3)s2)c1 | 3700 nM | 36 nM | –
5 | C=CCCOc1cccc(CC(=O)Nc2ccc(CCCCc3nnc(NC(=O)CCC=C)s3)nn2)c1 | 1370 nM | 87 nM | –
6 | C=CCCC(=O)Nc1nnc(CCCCc2ccc(NC(=O)Cc3cccc(O)c3)nn2)s1 | 2630 nM | 530 nM | –
7 | C=CCCOc1cccc(CC(=O)Nc2ccc(CCCCc3nnc(NC(=O)CC=C)s3)nn2)c1 | 1600 nM | 110 nM | –
8 | C#CCCC(=O)Nc1nnc(CCCCc2ccc(NC(=O)Cc3cccc(OCCC=C)c3)nn2)s1 | 2250 nM | 290 nM | –
9 | C=CCCCCOc1cccc(CC(=O)Nc2nnc(CCCCc3ccc(NC(=O)CCC=C)nn3)s2)c1 | 660 nM | 34 nM | –
10 | CCCCCCCCOc1cccc(CC(=O)Nc2ccc(CCCCc3nnc(NC(=O)CCCC)s3)nn2)c1 | 210 nM | 17 nM | –
11 | C#CCOc1cccc(CC(=O)Nc2ccc(CCCCc3nnc(NC(=O)CCCC)s3)nn2)c1 | > 10000 nM | 1050 nM | –
12 | CCCCNc1cccc(CC(=O)Nc2ccc(CCCCc3nnc(NC(=O)CCCC)s3)nn2)c1 | – | > 20000 nM | –
13 | CCCCOc1cccc(CC(=O)Nc2ccc(OC3CC4CCC(C3)N4c3nnc(NC(=O)CCCC)s3)nn2)c1 (stereo not given) | 16900 nM | > 20000 nM | –
14 | CCCCC(=O)Nc1nnc(CCCCc2ccc(NC(=O)Cc3cccc(OCCC)c3)nn2)s1 | 820 nM | 130 nM | –
15 | CCCCCCOc1cccc(CC(=O)Nc2ccc(CCCCc3nnc(NC(=O)CCCC)s3)nn2)c1 | 380 nM | 19 nM | half-life [2]: 26 min; microsomal CLint [4]: 134 µL/min/mg
16 | C#CCCC(=O)Nc1nnc(CCCCc2ccc(NC(=O)Cc3cccc(O)c3)nn2)s1 | 3440 nM | 580 nM | –
17 | CCCCC(=O)Nc1nnc(CCCCc2ccc(NC(=O)Cc3cccc(OCC)c3)nn2)s1 | 8540 nM | 220 nM | –
18 | CCCCOc1cccc(CC(=O)Nc2ccc(CCCCc3nnc(NC(=O)C4CC4)s3)nn2)c1 | 2640 nM | 160 nM | solubility at 72 h [5]: 0.71 µg/mL (≈ 1.4 µM)
19 | C=CCCOc1cccc(CC(=O)Nc2nnc(CCCCc3ccc(NC(=O)CC=C)nn3)s2)c1 | 24900 nM | > 5000 nM | –

Row | SMILES | IC50 (HCT-116 [1]) | IC50 [3] | also measured
20 | C=CCCCOc1cccc(CC(=O)Nc2nnc(CCCCc3ccc(NC(=O)CC=C)nn3)s2)c1 | 29400 nM | > 5000 nM | –
21 | C=CCCCCOc1cccc(CC(=O)Nc2ccc(CCCCc3nnc(NC(=O)C4CC(F)(F)C4)s3)nn2)c1 | 1680 nM | 32 nM | half-life [2]: 87.8 min; microsomal CLint [4]: 39.5 µL/min/mg
22 | C=CCCCCOc1cccc(CC(=O)Nc2ccc(CCCCc3nnc(N)s3)nn2)c1 | 1090 nM | 280 nM | –
23 | O=C(Cc1ccccc1)Nc1nnc(CCSCCc2nnc(NC(=O)Cc3ccccc3)s2)s1 | – | – | inhibition in vivo at 100 mg/kg (HCT-116 [6]): 31.3%
24 | C=CCCCCOc1cccc(CC(=O)Nc2ccc(CCCCc3nnc(NC(=O)CCC=C)s3)nn2)c1 | 310 nM | 25.1 nM | half-life [2]: 25.1 min; ΔTm [7]: 13.9 °C; microsomal CLint [4]: 138 µL/min/mg; solubility at 72 h [5]: 3.6 µg/mL (≈ 6.56 µM)
25 | CCCCC(=O)Nc1nnc(CCCCc2ccc(NC(=O)Cc3cccc(O)c3)nn2)s1 | 6820 nM | 170 nM | –
26 | CCCCC(=O)Nc1nnc(CCCCc2ccc(NC(=O)Cc3cccc(N)c3)nn2)s1 | – | 520 nM | –
27 | CCCCCCCOc1cccc(CC(=O)Nc2ccc(CCCCc3nnc(NC(=O)CCCC)s3)nn2)c1 | 1960 nM | 17 nM | –
28 | C#CCCC(=O)Nc1nnc(CCCCc2ccc(NC(=O)Cc3cccc(OC(=O)CCC#C)c3)nn2)s1 | 5260 nM | 390 nM | –
29 | C=CCCCOc1cccc(CC(=O)Nc2ccc(CCCCc3nnc(NC(=O)CCC=C)s3)nn2)c1 | 920 nM | 79 nM | –
30 | CCCCCOc1cccc(CC(=O)Nc2ccc(CCCCc3nnc(NC(=O)CCCC)s3)nn2)c1 | 2180 nM | 24 nM | –
31 | C=CCCOc1cccc(CC(=O)Nc2nnc(CCCCc3ccc(NC(=O)CCC=C)nn3)s2)c1 | 1520 nM | 240 nM | –
32 | CCCCCOc1cccc(CC(=O)Nc2ccc(CCCCc3nnc(NC(=O)C4CC4)s3)nn2)c1 | 4030 nM | 36 nM | solubility at 72 h [5]: 0.52 µg/mL (≈ 0.995 µM)
33 | C=CCCC(=O)Nc1nnc(CCCCc2ccc(NC(=O)Cc3cccc(OC(=O)CCC=C)c3)nn2)s1 | 7900 nM | 140 nM | –
34 | CCCCCCNc1cccc(CC(=O)Nc2ccc(CCCCc3nnc(NC(=O)CCCC)s3)nn2)c1 | – | > 20000 nM | –
35 | CCCCOc1cccc(CC(=O)Nc2ccc(CCCCc3nnc(NC(=O)C4CC(F)(F)C4)s3)nn2)c1 | 1860 nM | 68 nM | solubility at 72 h [5]: 6.23 µg/mL (≈ 11.2 µM)
36 | CCCCCNc1cccc(CC(=O)Nc2ccc(CCCCc3nnc(NC(=O)CCCC)s3)nn2)c1 | – | > 20000 nM | –
37 | CCCCCCOc1cccc(CC(=O)Nc2ccc(CCCCc3nnc(NC(=O)C4CC(F)(F)C4)s3)nn2)c1 | 1230 nM | 24 nM | solubility at 72 h [5]: 4.1 µg/mL (≈ 6.99 µM)
